SMILES strings stand for the structures.

Series [1] is described as follows: Dissolution of test article in dosing formulation. The settings on record: Ex No. B1a, 6.72 mg/kg group, 0.5% methylcellulose vehicle, equivalent to 2 mg/mL oxymorphone HCl.
Series [2] can be described thus: Oral gavage pharmacokinetics in rats, plasma oxycodone by LC-MS/MS. The settings on record: 0.89 mg/kg oral, rat, 6 h.

On to `CN1CC[C@]23c4c5ccc(O)c4O[C@H]2C(OC(=O)[C@@H](O)c2ccccc2)=CC[C@@]3(O)[C@H]1C5.Cl` [Oxymorphone Mandelate], for which the “Solubility of test article in dosing formulation” value in series [1] was “(not completely soluble)”.

Regarding `COc1ccc2c3c1O[C@H]1C(OC(=O)C[C@H](O)C(=O)O)=CC[C@@]4(O)[C@@H](C2)N(C)CC[C@]314.Cl` [Oxycodone Malate, (S)-2-Hydroxy-4-(((4R,4aS,7aR,12bS)-4a-hydroxy-9-methoxy-3-methyl-2,3,4,4a,5,7a-hexahydro-1H-4,12-methanobenzofuro[3,2-e]isoquinolin-7-yl)oxy)-4-oxobutanoic acid hydrochloride], in series [2], the “Plasma Concentration (oxycodone) by Subject” value is recorded as “BLQ”. Besides, the “Plasma Concentration (oxycodone), Mean” value in series [2] (mean of the N quantifiable subjects) is recorded as “BLQ”.

(Values after patent publication US10695342B2, “Methods and compositions for preventing opioid abuse” (Albany Molecular Research, Inc., priority 2015, dated 2020).)
